Reference: article PMC8051587 (ACS chemical biology, 2020)
Values joined by “and” are separate entries in the source; they are usually repeats but may differ in a detail not shown here. Identical values can stand only once. Like-named read-outs stand apart in the source and are kept apart here.

Key:
[1] = system: A/WSN/33 virus (with naturally occurring M2 N31); test: microbe, parasite or virus in culture; type: cell-based; conditions: for EC50: read-out: EC50 ± SD
A/WSN/33 M2 N31S virus = type: cell-based, influenza A virus; conditions: for EC50: read-out: EC50 ± SD
[2] = target: T1, full-length A/Udorn/72 M2 S31N (Influenza A virus, UniProt P0DOF5, S31N); conditions: cited from earlier work
[3] = target: T1, full-length A/Udorn/72 M2 S31N
[4] = CPE inhibition assay, MDCK cells, amantadine-resistant A/WSN/33 (M2 N31)

| Compound | EC50 ± SD [1, 4] | EC50 (A/WSN/33 M2 N31S virus) [nM] | EC50 ([1]; Influenza A virus, WSN, MDCK) [nM] | IC50 ([2]; read-out: IC50 in TEVC with M2 S31N, previously reported) [nM] | Kd ([2]; read-out: Kd (literature value, footnote g), footnote to the Kd value, ref [3]) [nM] | Blockage Eliminated in Wash Out(%) [3] [%] | Kd [3] [nM] | Percent Block [3] | kon [3] [M⁻¹ s⁻¹] | EC50 [1, 4] [nM] | EC50 ± SD (A/WSN/33 M2 N31S virus) |
| --- | --- | --- | --- | --- | --- | --- | --- | --- | --- | --- | --- |
| NC12CC3CC(CC(C3)C1)C2 [Amantadine, amantadine] | not active | 250 ± 70 |  |  |  |  |  |  |  |  |  |
| CCOC(=O)C1=C[C@@H](OC(CC)CC)[C@H](NC(C)=O)[C@@H](N)C1 [Oseltamivir] |  | 30 ± 20 | 10 ± 10 |  |  |  |  |  |  |  |  |
| c1csc(-c2cc(CNC34CC5CC(CC(C5)C3)C4)on2)c1 [Compound 6] |  |  |  | 16000 | 16000 | 6.8 ± 1.2 | 7500 ± 300 | 99.2% and 99 ± 1% | 2280 ± 150 | 153 | not active |
